For data set [1] the following is noted: room temperature; cited from earlier work.
The subject of the next data set is A. niger. The data set can be described thus: Agar plate test: diameter of the A. niger growth ring after contact with biocide matrix. It counts as cell-based. Conditions: for A. niger diameters (cm), 3 days: day 3; for A. niger diameters (cm), 7 days: day 7; for A. niger diameters (cm), 14 days: day 14; for A. niger diameters (cm), 21 days: day 21; for A. niger diameters (cm), 28 days: day 28. The protocol: Samples of the prepared materials were dispersed in hot (˜45° C.) agar, under stirring. […] Pure DBNPA and commercial biocide (OTW) were used as standards. All the results were duplicated to assure accuracy.

Where [2] appears, read: 300 ppm in agar (column DBNPA in agar, ppm), inoculum plug ID 1 cm.
[3] abbreviates: 300 ppm in agar, inoculum plug ID 1 cm.

Turning to `N#CC(Br)(Br)C(N)=O` [DBNPA, 2,2-dibromo-3-nitrilopropionamide], in data set [1], the “time to loss of activity by decomposition in aqueous media” value was 2 to 3 days. For the same molecule, in the data set on A. niger, the “concentration at which activity is demonstrated” value is reported as over 1000 ppm. In addition, the “time over which activity is lost” value in the data set on A. niger (300 ppm DBNPA) amounted to 3 days. In addition, the “A. niger diameters (cm), 3 days” value with A. niger (setting [2]) is given as 3.7 cm. In the data set on A. niger (setting [3]), the “A. niger diameters (cm), 7 days” value came to 10 cm; the “A. niger diameters (cm), 14 days” value is recorded as 10 cm; the “A. niger diameters (cm), 21 days” value came out at 10 cm; the “A. niger diameters (cm), 28 days” value amounted to 10 cm. Besides, in the data set with A. niger (1000 ppm DBNPA in agar), the “A. niger diameters (cm), 3 days” value is 1 cm; the “A. niger diameters (cm), 7 days” value is reported as 1 cm; the “A. niger diameters (cm), 14 days” value came to 1 cm; the “A. niger diameters (cm), 21 days” value was 1 cm. Moreover, in the data set with A. niger (1000 ppm DBNPA in agar), the “A. niger diameters (cm), 28 days” value is recorded as 1 cm.
As to `CCCCCCCCn1sccc1=O` [OTW neat, N-octylisothiazolinone], the “A. niger diameters (cm), 3 days” value in the data set on A. niger (setting [2]) was found to be 1 cm. Also, in the data set on A. niger (setting [3]), the “A. niger diameters (cm), 7 days” value came to 1 cm; the “A. niger diameters (cm), 14 days” value turned out to be 1 cm; the “A. niger diameters (cm), 21 days” value turned out to be 1 cm; the “A. niger diameters (cm), 28 days” value stood at 1 cm.

The values are drawn from patent US20120207835A1, “BROAD-SPECTRUM BIOCIDE COMPOSITIONS AND A METHOD FOR THEIR PREPARATION” (BROMINE COMPOUNDS LTD., priority 2009, published 2012).
